According to patent US20230126893A1, “[(1,4,5-TRISUBSTITUTED-1H-PYRAZOL-3-YL)SULFANYL]ACETIC ACID DERIVATIVES, SALTS THEREOF, AND USE THEREOF AS ACTIVE HERBICIDAL INGREDIENTS” (BAYER AKTIENGESELLSCHAFT, priority 2020, published 2023):

Experiments:
Assay type in all cases: in vivo
Alopecurus myosuroides [1] = assay: Pre-emergence herbicidal effect against ALOMY; details: 1280 g/ha, visual score after 3 weeks, 100% = plants have died, 0% = like control plants
Procedure, shortened: (§1)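 Pre-emergence soil-surface spray, WP/EC formulations in water at 600 to 800 L/ha plus 0.2% wetting agent, sandy loam, greenhouse, visual % damage vs untreated at 3 weeks (100% = plants dead, 0% = like control).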

Digitaria sanguinalis [2] = assay: Pre-emergence herbicidal effect against DIGSA; details: 1280 g/ha, visual score after 3 weeks, 100% = plants have died, 0% = like control plants
Procedure, shortened: as §1

Lolium rigidum = assay: Pre-emergence herbicidal effect against LOLRI; details: 1280 g/ha, visual score after 3 weeks, 100% = plants have died, 0% = like control plants
Procedure, shortened: as §1

Poa annua [3] = assay: Pre-emergence herbicidal effect against POAAN; details: 1280 g/ha, visual score after 3 weeks, 100% = plants have died, 0% = like control plants
Procedure, shortened: as §1

Setaria viridis [4] = assay: Pre-emergence herbicidal effect against SETVI; details: 1280 g/ha, visual score after 3 weeks, 100% = plants have died, 0% = like control plants
Procedure, shortened: as §1

Amaranthus retroflexus [5] = assay: Pre-emergence herbicidal effect against AMARE; details: 1280 g/ha, visual score after 3 weeks, 100% = plants have died, 0% = like control plants
From the text: (§2) 1. Pre-emergence herbicidal effect and crop plant compatibility Seeds of monocotyledonous and dicotyledonous weed plants and crop plants are laid out in sandy loam soil in wood-fibre pots and covered with soil. The compounds of the invention, formulated in the form of wettable powders (WP) or as emulsion concentrates (EC), are then applied to the surface of the covering soil as aqueous suspension or emulsion at a water application rate equating to 600 to 800 L/ha with addition of 0.2% wetting agent. After the treatment, the pots are placed in a greenhouse and kept under good growth conditions for the trial plants. The damage to the test plants is scored visually after a test period of 3 weeks by comparison with untreated controls (herbicidal activity in percent (%): 100% activity=the plants have died, 0% activity=like control plants). [table]

[6] = test system: Tripleurospermum inodorum; assay: Pre-emergence herbicidal effect against MATIN; details: 1280 g/ha, visual score after 3 weeks, 100% = plants have died, 0% = like control plants
Procedure, shortened: as §1

Stellaria media [7] = assay: Pre-emergence herbicidal effect against STEME; details: 1280 g/ha, visual score after 3 weeks, 100% = plants have died, 0% = like control plants
Procedure, shortened: as §1

Veronica persica [8] = assay: Pre-emergence herbicidal effect against VERPE; details: 1280 g/ha, visual score after 3 weeks, 100% = plants have died, 0% = like control plants
Procedure, shortened: as §1

Alopecurus myosuroides [9] = assay: Post-emergence herbicidal effect against ALOMY; details: 1280 g/ha, visual score after about 3 weeks, 100% = plants have died, 0% = like control plants
Procedure, shortened: (§3)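 Visual score, % action vs untreated controls (100% = plants dead, 0% = like controls), read ~3 wk after spraying. Greenhouse plants in sandy loam, one-leaf stage, 2–3 wk post-sowing. WP/EC as aqueous spray, 600–800 l/ha, 0.2% wetting agent.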

Digitaria sanguinalis [10] = assay: Post-emergence herbicidal effect against DIGSA; details: 1280 g/ha, visual score after about 3 weeks, 100% = plants have died, 0% = like control plants
Procedure, shortened: as §3

Echinochloa crus-galli [11] = assay: Post-emergence herbicidal effect against ECHCG; details: 1280 g/ha, visual score after about 3 weeks, 100% = plants have died, 0% = like control plants
Procedure, shortened: as §3

Poa annua [12] = assay: Post-emergence herbicidal effect against POAAN; details: 1280 g/ha, visual assessment about 3 weeks after treatment, 100% = plants have died, 0% = like control plants
Procedure, shortened: as §3

Setaria viridis [13] = assay: Post-emergence herbicidal effect against SETVI; details: 1280 g/ha, visual assessment about 3 weeks after treatment, 100% = plants have died, 0% = like control plants
Procedure, shortened: as §3

Abutylon threophrasti = assay: Post-emergence herbicidal effect against ABUTH; details: 1280 g/ha, visual assessment about 3 weeks after treatment, 100% = plants have died, 0% = like control plants
Procedure, shortened: as §3

Amaranthus retroflexus [14] = assay: Post-emergence herbicidal effect against AMARE; details: 1280 g/ha, visual assessment about 3 weeks after treatment, 100% = plants have died, 0% = like control plants
Method: [table] 2. Post-emergence herbicidal effect and crop plant compatibility Seeds of monocotyledonous and dicotyledonous weed and crop plants are laid out in sandy loam soil in wood-fibre pots, covered with soil and cultivated in a greenhouse under good growth conditions. 2 to 3 weeks after sowing, the test plants are treated at the one-leaf stage. The compounds of the invention, formulated in the form of wettable powders (WP) or as emulsion concentrates (EC), are then sprayed onto the green parts of the plants as aqueous suspension or emulsion at a water application rate equating to 600 to 800 l/ha with addition of 0.2% wetting agent. After the test plants have been left to stand in the greenhouse under optimal growth conditions for about 3 weeks, the action of the preparations is assessed visually in comparison to untreated controls (herbicidal action in percent (%): 100% activity=the plants have died, 0% activity=like control plants).

Bassia scoparia [15] = assay: Post-emergence herbicidal effect against KCHSC; details: 1280 g/ha, visual assessment about 3 weeks after treatment, 100% = plants have died, 0% = like control plants
Procedure, shortened: as §3

[16] = test system: Tripleurospermum inodorum; assay: Post-emergence herbicidal effect against MATIN; details: 1280 g/ha, visual assessment about 3 weeks after treatment, 100% = plants have died, 0% = like control plants
Procedure, shortened: as §3

Stellaria media [17] = assay: Post-emergence herbicidal effect against STEME; details: 1280 g/ha, visual assessment about 3 weeks after treatment, 100% = plants have died, 0% = like control plants
Procedure, shortened: as §3

Veronica persica [18] = assay: Post-emergence herbicidal effect against VERPE; details: 1280 g/ha, visual assessment about 3 weeks after treatment, 100% = plants have died, 0% = like control plants
Procedure, shortened: as §3

Echinochloa crus-galli [19] = assay: Pre-emergence herbicidal effect against ECHCG; details: 1280 g/ha, visual score after 3 weeks, 100% = plants have died, 0% = like control plants
Procedure, shortened: as §1

Bassia scoparia [20] = assay: Pre-emergence herbicidal effect against KCHSC; details: 1280 g/ha, visual score after 3 weeks, 100% = plants have died, 0% = like control plants
From the text: as §2

Structure (SMILES)	Pre-emergence action against ALOMY (Alopecurus myosuroides [1])	Pre-emergence action against DIGSA (Digitaria sanguinalis [2])	Pre-emergence action against LOLRI (Lolium rigidum)	Pre-emergence action against POAAN (Poa annua [3])	Pre-emergence action against SETVI (Setaria viridis [4])	Pre-emergence action against AMARE (Amaranthus retroflexus [5])	Pre-emergence action against MATIN [6]	Pre-emergence action against STEME (Stellaria media [7])	Pre-emergence action against VERPE (Veronica persica [8])	Post-emergence action against ALOMY (Alopecurus myosuroides [9])	Post-emergence action against DIGSA (Digitaria sanguinalis [10])	Post-emergence action against ECHCG (Echinochloa crus-galli [11])	Post-emergence action against POAAN (Poa annua [12])	Post-emergence action against ABUTH (Abutylon threophrasti)	Post-emergence action against KCHSC (Bassia scoparia [15])	Post-emergence action against MATIN [16]	Post-emergence action against STEME (Stellaria media [17])	Post-emergence action against VERPE (Veronica persica [18])	Pre-emergence action against ECHCG (Echinochloa crus-galli [19])	Pre-emergence action against KCHSC (Bassia scoparia [20])	further results
CCOC(=O)CSc1nn(-c2ccccc2F)c(-c2ccc(F)c(F)c2)c1Cl [Example I-001]	100%	100%	100%	100%	100%	100%	90%	100%	100%	100%	100%	100%	100%	90%	90%	100%	100%	100%	–	–	Post-emergence action against SETVI (Setaria viridis [13]): 90%; Post-emergence action against AMARE (Amaranthus retroflexus [14]): 90%
CCOC(=O)CSc1nn(-c2cc(F)ccc2F)c(-c2ccc(F)c(F)c2)c1Br [Example I-013]	100%	100%	100%	100%	100%	100%	100%	100%	100%	100%	100%	–	100%	90%	90%	100%	100%	100%	100%	90%	Post-emergence action against AMARE (Amaranthus retroflexus [14]): 100%
CCOC(=O)C(C)Sc1nn(-c2ccccc2F)c(-c2ccc(F)c(F)c2)c1Br (centres unmarked) [Example I-015]	100%	100%	100%	100%	100%	–	100%	100%	100%	100%	–	100%	100%	90%	90%	–	–	100%	100%	100%	–
CCOC(=O)CSc1nn(-c2ccc(F)cc2F)c(-c2ccc(F)cc2)c1Br [Example I-016]	90%	100%	90%	100%	100%	–	100%	100%	100%	100%	90%	90%	90%	–	90%	90%	90%	90%	100%	100%	–
